Measured values published in ChEMBL document CHEMBL1201862, “PubChem BioAssay data set” (2004).
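Five concentrations, 48 hours, 96-well plates. Here, GI50 denotes the concentration required for 50% inhibition of growth.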 Activity calls are given as the source filed them. Cut-off read from the data, not from the text of the source: active = GI50 up to about 1.1 µM and inactive = higher.

Tests used:
Assay in all cases: NCI-60 cell line screen, 48 h
[1] = test system: A498
[2] = test system: DMS-114
[3] = test system: NCI/ADR-RES
[4] = test system: SNB-78
[5] = test system: DMS-273
[6] = test system: MDA-N
[7] = test system: PC-3
[8] = test system: RXF 631

Measured: GI50

COC(=O)C1=C(O)C(C(=O)OC)[C@@]2(O)[C@@H](C(=O)OC)CC[C@@H]1[C@@H]2C(=O)OC (stereo not given in full)
inactive: [1] 16.5 µM

Cc1[nH]c(=O)[nH]c(=O)c1/C=C/C(=O)NC(CO)C[S+]([O-])Cc1ccccc1 (stereo not given)
inactive: [2] > 300 µM | [3] > 300 µM | [4] > 300 µM | [1] > 300 µM | [5] > 300 µM

O=C1C(Cl)N(c2ccc(Cl)cc2Cl)C1c1c[nH]c2ccccc12 (stereo not given)
inactive: [2] > 100 µM

O=c1c(Cc2ccc(Cc3c(O)oc4ccccc4c3=O)cc2)c(O)oc2ccccc12
inactive: [3] > 100 µM | [1] > 100 µM | [6] > 100 µM | [7] > 100 µM

CCOC(=O)C(NC(C)=O)(Nc1ccc(F)cc1)C(F)(F)F (stereo not given)
inactive: [3] 8.13 µM | [6] 4.75 µM | [7] > 100 µM

COc1cc2c(cc1OC)C1Cc3sccc3CN1CC2 (stereo not given)
inactive: [2] > 100 µM | [8] > 100 µM | [4] > 100 µM | [5] > 100 µM

C=CCn1c2ccccc2c2c(C)c3cnccc3c(C)c21
inactive: [3] 4.91 µM | [4] 22.3 µM | [1] 6.34 µM | [5] 6.92 µM

O=C(O)CN(CC(=O)O)C1CCCCC1N(CC(=O)O)CC(=O)NCCN=C=S (stereo not given)
inactive: [3] > 100 µM | [1] > 100 µM | [6] > 100 µM | [7] > 100 µM

CC(C)(C)C1(c2ccc(C3(c4ccccc4)Oc4ccccc4S3)[nH]2)Oc2ccccc2S1 (stereo not given)
inactive: [2] > 100 µM | [8] > 100 µM | [4] > 100 µM | [5] > 100 µM
